This note sets out measurements from ChEMBL document CHEMBL1136860, “Synthesis and 5-lipoxygenase inhibitory activity of new cinnamoyl and caffeoyl clusters” (Bioorg Med Chem Lett, 2009).

pIC50: −log10 of the molar value. The source made the active and inactive calls. The calls are words filed in the database; no cut-off is given here.

For orientation: inhibition means how much of the control response was suppressed. The pIC50 is the IC50 on a negative log10 scale, so that one unit is a factor of ten. A lower pIC50 goes with a high IC50.

Common to all, as to format: cell-based
In experiment [1] the target is T1, Polyunsaturated fatty acid 5-lipoxygenase (Homo sapiens) (UniProt P09917).
T1 sequence (whole entry): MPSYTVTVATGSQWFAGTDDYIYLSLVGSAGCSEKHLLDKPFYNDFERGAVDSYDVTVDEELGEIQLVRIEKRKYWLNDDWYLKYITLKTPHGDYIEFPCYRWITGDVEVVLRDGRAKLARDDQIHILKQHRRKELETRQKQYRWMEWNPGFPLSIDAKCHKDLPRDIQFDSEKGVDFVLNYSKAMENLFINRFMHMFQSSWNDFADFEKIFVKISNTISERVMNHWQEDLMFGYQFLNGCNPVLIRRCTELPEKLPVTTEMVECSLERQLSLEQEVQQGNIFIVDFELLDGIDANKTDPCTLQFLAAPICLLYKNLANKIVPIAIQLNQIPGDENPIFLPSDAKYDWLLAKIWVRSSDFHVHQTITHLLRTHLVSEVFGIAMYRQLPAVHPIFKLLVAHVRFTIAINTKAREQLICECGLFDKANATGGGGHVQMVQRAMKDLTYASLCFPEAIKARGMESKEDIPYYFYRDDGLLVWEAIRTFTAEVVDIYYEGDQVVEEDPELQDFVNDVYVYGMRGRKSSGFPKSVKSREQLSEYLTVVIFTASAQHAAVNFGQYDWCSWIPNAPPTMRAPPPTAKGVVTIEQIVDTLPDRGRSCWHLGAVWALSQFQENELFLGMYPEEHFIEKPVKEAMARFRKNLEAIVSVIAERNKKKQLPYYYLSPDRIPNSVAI
The experiment can be described thus: Inhibition of human 5LOX expressed in HEK293 cells at 1 uM.

Experiment [2] has as its target T1, Polyunsaturated fatty acid 5-lipoxygenase (Homo sapiens). The experiment can be described thus: Ratio of IC50 of caffeic acid to IC50 of compound for human 5LOX expressed in HEK293 cells.
The target in experiment [3] is T2, Polyunsaturated fatty acid 5-lipoxygenase (Homo sapiens, UniProt P09917).
T2 sequence (P09917 whole entry): T1 sequence (whole entry)
The experiment can be described thus: Inhibition of human 5LOX expressed in HEK293 cells.

For `O=C(/C=C/c1ccc(O)c(O)c1)OCc1cn(CC(COCC(Cn2cc(COC(=O)/C=C/c3ccc(O)c(O)c3)nn2)(Cn2cc(COC(=O)/C=C/c3ccc(O)c(O)c3)nn2)Cn2cc(COC(=O)/C=C/c3ccc(O)c(O)c3)nn2)(Cn2cc(COC(=O)/C=C/c3ccc(O)c(O)c3)nn2)Cn2cc(COC(=O)/C=C/c3ccc(O)c(O)c3)nn2)nn1`, in experiment [1], the outcome was Active.

On to `O=C(/C=C/c1ccc(O)c(O)c1)OCc1cn(CC(Cn2cc(COC(=O)/C=C/c3ccc(O)c(O)c3)nn2)(Cn2cc(COC(=O)/C=C/c3ccc(O)c(O)c3)nn2)Cn2cc(COC(=O)/C=C/c3ccc(O)c(O)c3)nn2)nn1`, for which the Ratio IC50 in experiment [2] is 10.1. In experiment [1], this molecule had an inhibition of 92%. The same molecule showed a negative logarithm of the IC50 (pIC50) in experiment [3] of 6.18.

As to `O=C(/C=C/c1ccc(O)c(O)c1)OCCn1cc(COC(=O)/C=C/c2ccc(O)c(O)c2)nn1`, in experiment [2], the Ratio IC50 is 16.8. For the same molecule, the outcome in experiment [1] was Active. In addition, the negative-log IC50 (pIC50) in experiment [3] was 6.13.

In the case of `O=C(/C=C/c1ccc(O)c(O)c1)OCCn1cc(COCC(COCc2cn(CCOC(=O)/C=C/c3ccc(O)c(O)c3)nn2)(COCc2cn(CCOC(=O)/C=C/c3ccc(O)c(O)c3)nn2)COCc2cn(CCOC(=O)/C=C/c3ccc(O)c(O)c3)nn2)nn1`, the result in experiment [1] was Active.

Take `O=C(/C=C/c1ccccc1)OCCn1cc(COC(=O)/C=C/c2ccc(O)c(O)c2)nn1`: in experiment [1], the result was Active.

As for `O=C(/C=C/c1ccc(O)c(O)c1)OCCn1cc(COC(=O)/C=C/c2ccccc2)nn1`, the Ratio IC50 in experiment [2] worked out at 36.7. The outcome in experiment [1] was Active. In experiment [3], this molecule had a negative logarithm of the IC50 (pIC50) of 6.17.

As for `O=C(/C=C/c1ccc(O)c(O)c1)OCc1cn(CC(CO)(Cn2cc(COC(=O)/C=C/c3ccc(O)c(O)c3)nn2)Cn2cc(COC(=O)/C=C/c3ccc(O)c(O)c3)nn2)nn1`, in experiment [2], the Ratio IC50 is 10.5. The same molecule displayed an inhibition in experiment [1] of 91%. The negative logarithm of the IC50 (pIC50) in experiment [3] was 6.10.
